Consider 27 compounds from patent US8703796B2, “3H-imidazo [4, 5-B] pyridine-6-carboxamides as anti-inflammatory agents” (Boehringer Ingelheim International GmbH, priority 2008, dated 2014).

A word on the inhibition: it is how much of the control response was suppressed.

SMILES strings stand for the structures. Where a name gives a salt, the structure may show the parent alone.

The target in the experiment is T1, recombinant human mPGES-1 (Homo sapiens, UniProt O14684).
T1 construct: made in house; host or cells: Rosetta E. coli (microsomal/membrane fraction)
T1 sequence (O14684 1-152): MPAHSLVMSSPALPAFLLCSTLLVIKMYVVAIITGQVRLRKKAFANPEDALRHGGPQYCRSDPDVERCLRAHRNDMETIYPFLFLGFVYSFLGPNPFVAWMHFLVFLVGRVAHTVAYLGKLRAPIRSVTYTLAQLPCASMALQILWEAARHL
In words: mPGES-1 inhibition, HTRF detection of PGE2. The experiment is classed as biochemical. An outline of the steps: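 Microsomes from E. coli expressing recombinant human mPGES-1 in 0.1 M KPi pH 7.4 with 2.5 mM GSH were preincubated with inhibitor 25 min at room temperature. PGH2 was then added, and the reaction was stopped after 1 min with acidified FeCl2. PGE2 was quantified by HTRF (665/620 nm ratio) against a synthetic PGE2 standard curve.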
(Time-resolved FRET reads energy transfer from a long-lived donor to a nearby acceptor.)
As for `Cc1cc(C)c(Nc2nc3cc(C(=O)N[C@H]4CC[C@H](C(F)(F)F)CC4)c(OCC(F)F)nc3[nH]2)c(Cl)n1` [Example 793, 2-(2-Chloro-4,6-dimethyl-pyridin-3-ylamino)-5-(2,2-difluoro-ethoxy)-N-(trans-4-trifluoromethyl-cyclohexyl)-3H-imidazo[4,5-b]pyridine-6-carboxamide], the inhibition at 10 µM was 94%. Still for that read-out and setting: next, `Cc1ccnc(Cl)c1Nc1nc2cc(C(=O)N[C@H]3CC[C@H](C(F)(F)F)CC3)c(OCC(F)F)nc2n1C` [Example 788, 2-(2-Chloro-4-methyl-pyridin-3-ylamino)-5-(2,2-difluoro-ethoxy)-N-(trans-4-trifluoromethyl-cyclohexyl)-3-methyl-3H-imidazo[4,5-b]pyridine-6-carboxamide]: 98%; `Cc1ccnc(Br)c1Nc1nc2cc(C(=O)N[C@H]3CC[C@H](C(F)(F)F)CC3)c(OCC(F)F)nc2n1C` [Example 786, 2-(2-Bromo-4-methyl-pyridin-3-ylamino)-5-(2,2-difluoro-ethoxy)-N-(trans-4-trifluoromethyl-cyclohexyl)-3-methyl-3H-imidazo[4,5-b]pyridine-6-carboxamide]: 92%.

For `Cn1c(Nc2c(Cl)cc(F)cc2Cl)nc2cc(C(=O)Nc3cc(C(F)(F)F)ccn3)c(OCC(F)(F)F)nc21` [Example 815, 2-(2,6-Dichloro-4-fluoro-phenylamino)-5-(2,2,2-trifluoro-ethoxy)-N-(4-trifluoromethyl-pyridin-2-yl)-3-methyl-3H-imidazo[4,5-b]pyridine-6-carboxamide], the inhibition at 10 µM is 100%.

With `COc1nc2c(cc1C(=O)Nc1cc(C(F)(F)F)ccn1)nc(Nc1c(Cl)cccc1Cl)n2C` [Example 386, 2-(2,6-Dichloro-phenylamino)-5-methoxy-3-methyl-N-(4-trifluoromethyl-pyridin-2-yl)-3H-imidazo[4,5-b]pyridine-6-carboxamide formate], the inhibition at 10 µM was determined as 99%. Still for that read-out and setting: under `Cn1c(Nc2c(Cl)cccc2Cl)nc2cc(C(=O)N[C@H]3CC[C@H](C)CC3)cnc21` [Example 453, 2-(2,6-Dichlorophenylamino)-3-methyl-N-((1r,4r)-4-methylcyclohexyl)-3H-imidazo[4,5-b]pyridine-6-carboxamide] stands 98%. For the compound `CCOc1nc2[nH]c(Nc3c(Cl)cncc3Cl)nc2cc1C(=O)Nc1cc(C(F)(F)F)ccn1` [Example 845, 2-(3,5-Dichloro-pyridin-4-ylamino)-5-ethoxy-N-(4-trifluoromethyl-pyridin-2-yl)-3H-imidazo[4,5-b]pyridine-6-carboxamide], the inhibition at 10 µM turned out to be 99%. In the case of `Cn1c(Nc2c(F)cccc2Cl)nc2cc(C(=O)Nc3ccc(Br)cc3)c(OCC(F)F)nc21` [Example 773, N-(4-Bromo-phenyl)-2-(2-fluoro-6-chloro-phenylamino)-5-(2,2-difluoroethoxy)-3-methyl-3H-imidazo[4,5-b]pyridine-6-carboxamide], the inhibition at 1 µM was 100%.

With `CCCCC[C@@H](C)NC(=O)c1cnc2c(c1)nc(Nc1c(Cl)cccc1Cl)n2C` [Example 449, (R)-2-(2,6-Dichlorophenylamino)-N-(hept-2-yl)-3-methyl-3H-imidazo[4,5-b]pyridine-6-carboxamide], the inhibition at 10 µM is 98%. Same read-out and setting: under `Cn1c(Nc2c(Cl)cncc2Cl)nc2cc(C(=O)Nc3ccc(Br)cc3)c(OCCF)nc21` [Example 832, 2-(3,5-Dichloro-pyridin-4-ylamino)-5-(2-fluoro-ethoxy)-N-(4-bromo-phenyl)-3-methyl-3H-imidazo[4,5-b]pyridine-6-carboxamide] stands 100%; under `O=C(NCc1ccccc1C(F)(F)F)c1cc2nc(Nc3c(Cl)cncc3Cl)[nH]c2nc1OCC(F)(F)F` [Example 853, 2-(3,5-Dichloro-pyridin-4-ylamino)-5-(2,2,2-trifluoro-ethoxy)-N-(2-trifluoromethyl-benzyl)-3H-imidazo[4,5-b]pyridine-6-carboxamide], 100%; under `O=C(N[C@H]1CC[C@H](C(F)(F)F)CC1)c1cc2nc(Nc3c(Cl)cncc3Cl)[nH]c2nc1OCC(F)(F)F` [Example 859, 2-(3,5-Dichloro-pyridin-4-ylamino)-5-(2,2,2-trifluoro-ethoxy)-N-(trans-4-trifluoromethyl-cyclohexyl)-3H-imidazo[4,5-b]pyridine-6-carboxamide], 89%. Still for that read-out and setting: next, `Cn1c(Nc2c(Cl)cncc2Cl)nc2cc(C(=O)Nc3cc(C(F)(F)F)ccn3)c(OCCF)nc21` [Example 831, 2-(3,5-Dichloro-pyridin-4-ylamino)-5-(2-fluoro-ethoxy)-N-(4-trifluoromethyl-pyridin-2-yl)-3-methyl-3H-imidazo[4,5-b]pyridine-6-carboxamide]: 100%. Still for that read-out and setting: under `O=C(NCC(F)(F)C(F)(F)C(F)(F)C(F)(F)F)c1cc2nc(Nc3c(Cl)cncc3Cl)[nH]c2nc1OC1CCOC1` (stereo not drawn) [Example 792, 2-(3,5-Dichloro-pyridin-4-ylamino)-5-(tetrahydrofuran-3-yl-oxy)-N-(2,2,3,3,4,4,5,5,5-nonafluoro-pentyl)-3H-imidazo[4,5-b]pyridine-6-carboxamide] stands 96%; under `COCCOc1nc2[nH]c(Nc3c(Cl)cncc3Cl)nc2cc1C(=O)Nc1cc(C(F)(F)F)ccn1` [Example 808, 2-(3,5-Dichloro-pyridin-4-ylamino)-5-(2-methoxy-ethoxy)-N-(4-trifluoromethyl-pyridin-2-yl)-3H-imidazo[4,5-b]pyridine-6-carboxamide], 100%. For the compound `CCCCCC[C@H](C)NC(=O)c1cnc2c(c1)nc(Nc1c(Cl)cccc1Cl)n2C` [Example 471, (S)-2-(2,6-Dichlorophenylamino)-3-methyl-N-(oct-2-yl)-3H-imidazo[4,5-b]pyridine-6-carboxamide], the inhibition at 10 µM came to 99%.

In the case of `O=C(N[C@H]1CC[C@H](C(F)(F)F)CC1)c1cc2nc(Nc3c(F)cccc3Cl)[nH]c2nc1OCC(F)F` [Example 785, 2-(2-Chloro-6-fluoro-phenylamino)-5-(2,2-difluoro-ethoxy)-N-(trans-4-trifluoromethyl-cyclohexyl)-3H-imidazo[4,5-b]pyridine-6-carboxamide], the inhibition at 10 µM amounted to 100%. Still for that read-out and setting: under `O=C(NCc1ccccc1C(F)(F)F)c1cc2nc(Nc3c(Cl)cc(F)cc3Cl)[nH]c2nc1OCC(F)(F)F` [Example 828, 2-(2,6-Dichloro-4-fluoro-phenylamino)-5-(2,2,2-trifluoro-ethoxy)-N-(2-trifluoromethyl-benzyl)-3H-imidazo[4,5-b]pyridine-6-carboxamide] stands 98%.

On to `O=C(NCc1ccccc1C(F)(F)F)c1cc2nc(Nc3c(Cl)cncc3Cl)[nH]c2nc1OC1CCOC1` (stereo not drawn) [Example 790, 2-(3,5-Dichloro-pyridin-4-ylamino)-5-(tetrahydrofuran-3-yl-oxy)-N-((2-trifluoromethyl-phenyl)-methyl)-3H-imidazo[4,5-b]pyridine-6-carboxamide], for which the inhibition at 10 µM was 97%. `Cn1c(Nc2c(Cl)cccc2C(F)(F)F)nc2cc(C(=O)N[C@H]3CC[C@H](C(F)(F)F)CC3)c(OCC(F)F)nc21` [Example 777, 2-(2-Chloro-6-trifluoromethyl-phenylamino)-5-(2,2-difluoro-ethoxy)-N-(trans-4-trifluoromethyl-cyclohexyl)-3-methyl-3H-imidazo[4,5-b]pyridine-6-carboxamide]: the inhibition at 1 µM worked out at 98%. Regarding `Cn1c(Nc2c(Cl)cncc2Cl)nc2cc(C(=O)N[C@H]3CC[C@H](C(F)(F)F)CC3)c(OC3CCOC3)nc21` (stereo partly drawn) [Example 846, 2-(3,5-Dichloro-pyridin-4-ylamino)-5-(tetrahydrofuran-3-yl-oxy)-N-(trans-4-trifluoromethyl-cyclohexyl)-3-methyl-3H-imidazo[4,5-b]pyridine-6-carboxamide], the inhibition at 10 µM was determined as 100%. The same measure, in the same setting: under `CCCC(CCC)NC(=O)c1cnc2c(c1)nc(Nc1c(Cl)cccc1Cl)n2C` [Example 473, 2-(2,6-Dichlorophenylamino)-N-(hept-4-yl)-3-methyl-3H-imidazo[4,5-b]pyridine-6-carboxamide] stands 99%; under `COCCOc1nc2[nH]c(Nc3c(Cl)cncc3Cl)nc2cc1C(=O)NCC(F)(F)C(F)(F)C(F)(F)C(F)(F)F` [Example 802, 2-(3,5-Dichloro-pyridin-4-ylamino)-5-(2-methoxy-ethoxy)-N-(2,2,3,3,4,4,5,5,5-nonafluoro-pentyl)-3H-imidazo[4,5-b]pyridine-6-carboxamide], 96%; under `O=C(Nc1ccc(Br)cc1)c1cc2nc(Nc3c(Cl)cncc3Cl)[nH]c2nc1OC1CCOC1` (stereo not drawn) [Example 791, 2-(3,5-Dichloro-pyridin-4-ylamino)-5-(tetrahydrofuran-3-yl-oxy)-N-(4-bromo-phenyl)-3H-imidazo[4,5-b]pyridine-6-carboxamide], 89%. For `O=C(NCC(F)(F)C(F)(F)C(F)(F)C(F)(F)F)c1cc2nc(Nc3c(Cl)cc(F)cc3Cl)[nH]c2nc1OCC(F)F` [Example 825, 2-(2,6-Dichloro-4-fluoro-phenylamino)-5-(2,2-difluoro-ethoxy)-N-(2,2,3,3,4,4,5,5,5-nonafluoropentyl)-3H-imidazo[4,5-b]pyridine-6-carboxamide], the inhibition at 10 µM is 98%. The same measure, in the same setting: under `O=C(NC1CCC2(CC1)CC2)c1cnc2[nH]c(Nc3c(Cl)cccc3Cl)nc2c1` [Example 485, 2-(2,6-Dichlorophenylamino)-N-(spiro[2.5]octan-6-yl)-3H-imidazo[4,5-b]pyridine-6-carboxamide] stands 98%; under `CCC1CCC(NC(=O)c2cnc3c(c2)nc(Nc2c(Cl)cccc2Cl)n3C)CC1` (stereo not drawn) [Example 438, 2-(2,6-Dichlorophenylamino)-N-(4-ethylcyclohexyl)-3-methyl-3H-imidazo[4,5-b]pyridine-6-carboxamide], 100%.
